This experiment deals with Streptococcus pneumoniae. The experiment can be described thus: Antibiotic sensitivity testing by zeta potential measurement (ZETASIZER 2000). It is filed as cell-based. The note with it: about 10^5 cells in growth medium with penicillin at 0.01 g/ml, incubated at 37° C. for 3 h; about 0 mV = dead cells, untreated −27.9 mV. The method, then: The following Example illustrates a particular embodiment of the invention: Streptococcus pneumoniae was grown for about 4 h in laked horse blood medium. Aliqouts, representing about 10^5 cells, were transferred to two tubes containing growth medium: one of these also contained penicillin at 0.01 g/ml. The zeta potential of both samples was measured using a ZETASIZER 2000 (RTM) from Malvern Instruments. The tubes were incubated at 37° C. for 3 h, and the zeta potential of each measured again. […] There is a clear difference in these profiles. In both Figures, the peak at 0 mV represents dead cells. The zeta potential of all dead micro-organisms is close to 0 mV: without wishing to be bound by a particular theory, it is believed that these changes are brought about by the vacuolation of the cells, resulting in the zeta potential decaying to about 0 mv. The other peak in FIG. 4 is believed also to be cells of S pneumoniae, but which are […].

In the case of penicillin, the “Mean Zeta Potential for S pneumoniae” value is given as −0.3 mV.

Values taken from patent publication US20040067547A1, “Rapid method for detecting micro-organisms and evaluating antimicrobial activity” (priority 1998, published 2004).
